Data published in ChEMBL document CHEMBL1126722, “Potent nonpeptide angiotensin II receptor antagonists. 2. 1-(Carboxybenzyl)imidazole-5-acrylic acids” (J Med Chem, 1993).

What was measured:
[1] = target: Angiotensin II receptor (Rattus norvegicus) (UniProt P29089+P25095+P35351); test: In vivo inhibition of pressor response to angiotensin II in conscious normotensive rats; type: functional, organism-based
[2] = target: T1, Angiotensin II receptor (Rattus norvegicus, UniProt P29089+P25095+P35351); test: Inhibition of [125I]AII binding to Angiotensin II receptor, type 1 of rat mesenteric arteries; type: protein assay
T1 sequence (P29089 whole entry): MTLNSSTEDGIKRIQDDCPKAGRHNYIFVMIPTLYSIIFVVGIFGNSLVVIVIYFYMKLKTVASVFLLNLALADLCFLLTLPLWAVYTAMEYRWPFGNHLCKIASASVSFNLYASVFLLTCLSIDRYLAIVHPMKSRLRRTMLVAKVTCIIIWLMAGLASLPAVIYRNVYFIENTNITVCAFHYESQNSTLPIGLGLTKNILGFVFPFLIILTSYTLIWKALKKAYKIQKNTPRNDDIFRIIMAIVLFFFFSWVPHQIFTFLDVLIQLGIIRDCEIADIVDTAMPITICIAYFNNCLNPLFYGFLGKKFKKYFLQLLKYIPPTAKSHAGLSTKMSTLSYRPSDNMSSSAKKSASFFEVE
T1 sequence (P25095 whole entry): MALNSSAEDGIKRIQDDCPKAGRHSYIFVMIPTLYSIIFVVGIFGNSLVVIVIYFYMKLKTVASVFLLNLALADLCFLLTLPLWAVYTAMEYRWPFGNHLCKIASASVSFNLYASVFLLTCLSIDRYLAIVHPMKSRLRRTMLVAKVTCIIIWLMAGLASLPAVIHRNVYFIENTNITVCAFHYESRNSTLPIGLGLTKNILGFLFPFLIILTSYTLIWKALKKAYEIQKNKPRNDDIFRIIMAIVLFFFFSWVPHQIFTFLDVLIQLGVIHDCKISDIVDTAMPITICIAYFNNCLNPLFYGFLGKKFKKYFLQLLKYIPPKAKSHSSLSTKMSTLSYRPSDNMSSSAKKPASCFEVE
T1 sequence (P35351 whole entry): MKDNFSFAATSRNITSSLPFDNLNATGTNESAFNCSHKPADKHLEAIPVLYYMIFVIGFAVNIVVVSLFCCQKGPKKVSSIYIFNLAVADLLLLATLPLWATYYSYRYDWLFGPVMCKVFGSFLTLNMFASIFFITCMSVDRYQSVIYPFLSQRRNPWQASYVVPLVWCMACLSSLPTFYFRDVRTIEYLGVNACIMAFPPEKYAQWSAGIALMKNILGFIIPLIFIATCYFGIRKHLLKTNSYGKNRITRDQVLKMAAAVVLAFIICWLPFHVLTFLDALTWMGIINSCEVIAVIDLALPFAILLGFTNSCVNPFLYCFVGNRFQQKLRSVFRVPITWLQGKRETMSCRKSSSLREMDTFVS

Row | Compound | ID50 [1] [mg/kg] | IC50 [2] [nM]
1 | CCCCc1ncc(/C=C(\Cc2cccs2)C(=O)O)n1Cc1ccccc1Cl | 3.6 | 
2 | CCCCc1ncc(/C=C(\Cc2cccs2)C(=O)O)n1Cc1ccccc1C#N |  | 22
3 | CCCCc1ncc(/C=C(\Cc2cccs2)c2nn[nH]n2)n1Cc1ccccc1Cl | 8 | 310
4 | CCCCc1ncc(/C=C(\Cc2cccs2)C(=O)O)n1Cc1ccc([N+](=O)[O-])cc1 |  | 620
5 | CC/C=C/c1ncc(/C=C(\Cc2cccs2)C(=O)O)n1Cc1ccccc1Cl |  | 570
6 | CCCCc1ncc(/C=C(\Cc2cccs2)C(=O)O)n1Cc1ccccc1[N+](=O)[O-] | 2.6 | 31
7 | CCCCc1ncc(/C=C(\Cc2cccs2)C(=O)O)n1Cc1ccc(C(=O)O)c(-c2ccccc2)c1 | 0.18 | 2.5
8 | CCCCc1ncc(/C=C(\Cc2cccs2)c2nn[nH]n2)n1Cc1cccc(Cl)c1Cl | 8 | 1300
9 | CCCCc1ncc(/C=C(\Cc2cccs2)c2nn[nH]n2)n1Cc1ccccc1C(F)(F)F | 8 | 
10 | CCCCc1ncc(/C=C(\Cc2cccs2)C(=O)O)n1Cc1ccc(C#N)cc1 |  | 118
11 | CCCCc1ncc(/C=C(\Cc2cccs2)C(=O)O)n1Cc1ccc(-c2nn[nH]n2)cc1 | 0.2 | 0.4
12 | CCCCc1ncc(/C=C(\Cc2cccs2)C(=O)O)n1Cc1cccc(OC)c1[N+](=O)[O-] |  | 130
13 | CCCCCCc1ncc(/C=C(\Cc2cccs2)C(=O)O)n1Cc1ccccc1Cl | 5.7 | 123
14 | CCCc1cccc(/C=C(\Cc2cccs2)C(=O)O)c1Cc1ccc(C(=O)O)cc1 |  | > 10
15 | CCCCc1ncc(/C=C(\Cc2cccs2)c2nn[nH]n2)n1Cc1ccccc1[N+](=O)[O-] | 3.5 | 230
16 | CCCCc1ncc(/C=C(\Cc2cccs2)C(=O)O)n1-c1ccc(C(=O)O)cc1 |  | 250
17 | CCCCc1ncc(/C=C(\Cc2cccs2)C(=O)O)n1Cc1ccc(C(=O)O)cc1[N+](=O)[O-] | 0.06 | 0.15
18 | CCCCc1ncc(/C=C(\Cc2cccs2)C(=O)O)n1Cc1cccc(OC)c1 | 8 | 180
19 | CCCCc1ncc(/C=C(\Cc2cccs2)C(=O)O)n1Cc1cccc(Cl)c1Cl | 2.8 | 46

Row | Compound | ID50 [1] [mg/kg] | IC50 [2] [nM]
20 | CCCCc1ncc(/C=C(\Cc2cccs2)C(=O)O)n1Cc1ccccc1 |  | 4530
21 | CCCCc1ncc(/C=C(\Cc2cccs2)C(=O)O)n1Cc1cccc([N+](=O)[O-])c1 | 7 | 210
22 | CCCCc1ncc(/C=C(\Cc2cccs2)C(=O)O)n1Cc1ccccc1O |  | 34
23 | CCCCc1ncc(/C=C(\Cc2cccs2)C(=O)O)n1Cc1ccccc1C(=O)O |  | 6000
24 | CCCCc1ncc(/C=C(\Cc2cccs2)C(=O)O)n1Cc1ccc(O)c(C)c1 |  | 21
25 | CCCCc1ncc(/C=C(\Cc2cccs2)C(=O)O)n1Cc1ccc(C(=O)O)c(C(=O)O)c1 | 0.12 | 4.6
26 | CCCCCCc1ncc(/C=C(\Cc2cccs2)C(=O)O)n1Cc1ccccc1[N+](=O)[O-] |  | 43
27 | CCCCc1ncc(/C=C(\Cc2cccs2)C(=O)O)n1Cc1ccc(OC)c(C)c1 |  | 66
28 | CCCCc1ncc(/C=C(\Cc2cccs2)C(=O)O)n1Cc1ccccc1OC | 15 | 7350
29 | CCCc1ncc(/C=C(\Cc2cccs2)C(=O)O)n1Cc1ccccc1[N+](=O)[O-] |  | 15
30 | CCCCc1ncc(/C=C(\Cc2cccs2)C(=O)O)n1Cc1ccc(S(N)(=O)=O)cc1 | > 3 | 4.5
31 | CCCCc1ncc(/C=C(\Cc2cccs2)c2nn[nH]n2)n1Cc1ccc(C(=O)O)cc1 | 0.7 | 0.3
32 | CCCc1ncc(/C=C(\Cc2cccs2)C(=O)O)n1Cc1ccccc1Cl | 8.1 | 127
33 | CCCCc1ncc(/C=C(\Cc2cccs2)C(=O)O)n1Cc1ccc(-c2ccccc2C(=O)O)cc1 | 0.62 | 6.6
34 | CCCCc1ncc(/C=C(\Cc2cccs2)C(=O)O)n1Cc1ccccc1C(F)(F)F | 3.4 | 260
35 | CCCCc1ncc(CC(Cc2cccs2)C(=O)O)n1Cc1ccc(C(=O)O)cc1 (centres undefined) | 0.24 | 53
36 | CCCCc1ncc(/C=C(\Cc2cccs2)C(=O)OCC)n1Cc1ccc(C(=O)OCC)cc1 |  | 1270
37 | CCCCc1ncc(/C=C(\Cc2cccs2)C(=O)O)n1Cc1cc(Cl)c(C(=O)O)cc1Cl | 0.68 | 35

Results, then the compound that gave them:

Row | ID50 [1] [mg/kg] | IC50 [2] [nM] | Compound
38 |  | 0.56 | CCCCc1ncc(/C=C(\Cc2cccs2)C(=O)O)n1Cc1ccc(C(N)=O)cc1
39 | 0.24 |  | CCCCc1ncc(/C=C(\CCc2cccs2)C(=O)O)n1Cc1ccc(C(=O)O)cc1
40 |  | 21 | CCCCc1ncc(/C=C(\Cc2cccs2)C(N)=O)n1Cc1ccc(C(=O)O)cc1
41 | 0.16 | 5 | CCCc1ncc(/C=C(\Cc2cccs2)C(=O)O)n1Cc1ccc(C(=O)O)cc1
42 | > 3 |  | CCCCc1ncc(C/C(=C/c2cccs2)C(=O)O)n1Cc1ccc(C(=O)O)cc1
43 | 0.33 |  | CCCC/C(=C\c1cnc(CCCC)n1Cc1ccc(C(=O)O)cc1)C(=O)O
44 | 0.06 | 1.45 | CCCCc1ncc(/C=C(\Cc2cccs2)C(=O)O)n1Cc1ccc(C(=O)O)cc1Cl
45 |  | 39 | CCCCc1ncc(/C=C(\Cc2cccs2)C(=O)O)n1Cc1ccc(C(=O)OC)cc1
46 |  | 94.2 | CCCCc1ncc(/C=C(\Cc2cccs2)C(N)=O)n1Cc1ccc(C(N)=O)cc1
47 | 0.84 | 60 | CCCCc1ncc(/C=C(\Cc2cccs2)C(=O)O)n1Cc1ccc(CC(=O)O)cc1
48 |  | 3.3 | CCCCc1ncc(/C=C(\Cc2cccs2)C(=O)O)n1Cc1cccc(C(=O)O)c1
49 | 0.12 | 1 | CCCCc1ncc(/C=C(\Cc2cccs2)C(=O)O)n1Cc1ccc(C(=O)O)c(Cl)c1
50 |  | 63 | CCCCc1ncc(/C=C(\Cc2cccs2)C(=O)O)n1CCc1ccc(C(=O)O)cc1
51 |  | 391 | CCCCc1ncc(/C=C/C(=O)O)n1Cc1ccc(C(=O)O)cc1
52 |  | 4.26 | CCCCc1ncc(/C=C(\Cc2ccccc2)C(=O)O)n1Cc1ccc(C(=O)O)cc1
53 |  | 4.81 | CCCCc1ncc(/C=C(\Cc2cccs2)C(=O)NCC(=O)O)n1Cc1ccc(C(=O)O)cc1
54 | 0.15 | 0.59 | CCCCc1ncc(/C=C(\Cc2cccs2)C(=O)O)n1Cc1ccc(C(=O)O)c(O)c1
55 |  | 416 | CCCCc1ncc(/C=C(/C(=O)O)C(C)(C)c2cccs2)n1Cc1ccc(C(=O)O)cc1
56 | 0.6 | 0.8 | CCCCCCc1ncc(/C=C(\Cc2cccs2)C(=O)O)n1Cc1ccc(C(=O)O)cc1
57 | 0.08 |  | CCCCc1ncc(/C=C(\Cc2cccs2)C(=O)O)n1Cc1ccc(C(=O)O)cc1 (stereo in doubt; 2)
58 |  | 33.6 | CC(C)CCc1ncc(/C=C(\Cc2cccs2)C(=O)O)n1Cc1ccc(C(=O)O)cc1
59 | 2 | 163 | CC(C)Cc1ncc(/C=C(\Cc2cccs2)C(=O)O)n1Cc1ccc(C(=O)O)cc1
60 |  | 27.6 | CCCCc1ncc(/C=C(\Cc2cccs2)C(=O)O)n1Cc1ccc(C(=O)OCC)cc1
61 |  | 248 | CCCCc1cnc(/C=C(\Cc2cccs2)C(=O)O)n1Cc1ccc(C(=O)O)cc1
62 |  | 33.8 | CCCCc1ncc(/C=C(\CC2CCCS2)C(=O)O)n1Cc1ccc(C(=O)O)cc1 (centres undefined)
